Read-outs that look alike come from different tables or passages of the source.
How the values were obtained:
[1] = target: T1, EsaR (Pantoea stewartii subsp. stewartii, UniProt P54293); assay: cell-based; details: for activation at 100 µM / inhibition at 100 µM: 3.5 h; for activation at 100 µM: read-out: EsaR-activated (pesaS) [%] agonism; for inhibition at 100 µM: read-out: EsaR-activated (pesaS) antagonism; for EsaR agonism, in words: E. coli EsaR reporters, primary screen at 100 μM
T1 construct: expressed in transfected cells; host or cells: E. coli JLD271 (K12 ΔsdiA), arabinose-induced pJN105-esaR
T1 sequence (P54293 whole entry): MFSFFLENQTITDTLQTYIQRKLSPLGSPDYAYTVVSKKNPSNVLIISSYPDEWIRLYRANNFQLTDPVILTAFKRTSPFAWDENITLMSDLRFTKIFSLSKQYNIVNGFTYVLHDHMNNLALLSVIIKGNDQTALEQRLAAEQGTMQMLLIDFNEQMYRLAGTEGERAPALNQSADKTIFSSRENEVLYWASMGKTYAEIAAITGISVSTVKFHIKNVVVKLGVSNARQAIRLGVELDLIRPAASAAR
Text: (§1) EsaR transcriptional activation and repression were examined using E. coli and P. stewartii reporters (strains and plasmids listed in Table S1; see Methods section for assay details). […] We constructed reporters in E. coli based on previously reported EsaR reporters (Table S1). Each strain contained an EsaR expression plasmid (pJN105-esaR) and a reporter plasmid with either an EsaR-activated promoter (pesaS) or an EsaR-repressed promoter (pesaR) upstream of luxABCDE or GFP.
(§2) Gibson assembly was used to create all constructs. Plasmid pJN105-esaR was created by amplifying esaR from pAC-esaR and inserting it into pJN105. pesaSlux was created by inserting pesaS, amplified from pPesaR-AC:gfp, into the pCS-pesaRlux backbone. The pesaR promoter was amplified from pCS-pesaRlux and inserted into the pPesaR-AC:gfp backbone to create pesaR:GFP. P. stewartii reporter strains were created by transforming pesaR:GFP or pPesaR-AC:gfp into ESN51 by conjugation using E. coli S17 λpir as the donor strain. See SI for details of E. coli ExpR2 reporter construction.
(§3) Overnight cultures were diluted 1:10 in LB medium with appropriate antibiotics and grown at 37 °C (200 rpm) to an OD600 of 0.22–0.27 before induction with 4 mg mL^–1 arabinose. OD600 was measured by placing 200 μL of culture into a 96-well plate and reading optical density using the BioTek Synergy 2 plate reader. Assays were performed in technical triplicate in clear-bottom, white and clear-bottom, black 96-well microtiter plates (Corning Costar 3903 and 3904) for luminescence and fluorescence reporters, respectively. Compounds were dissolved in DMSO, and 2 μL of this stock, or DMSO as a negative control, was added to each well prior to adding 198 μL of induced culture. Plates were incubated at 37 °C (200 rpm) for 3.5 h. Each well was mixed by pipetting before reading OD600 and either luminescence or fluorescence. Single-point screens were performed with one or two biological replicates, and all dose–response curves were performed in biological triplicate. EC50 values were calculated based on a nonlinear regression of log(concentration) vs response (three parameters) using GraphPad Prism 9 software.

[2] = tested on: ExpR2; details: cited from earlier work; for ExpR2 antagonism (percent inhibition): 5 µM compound against 5 µM OHHL, negative values indicate potential activators; for ExpR2 [%] (agonism, percent activation): compounds at 200 μM, cellulase activity in P. versatile AC5099, ref Palmer et al., 2011 (main ref 44, SI ref 6)
[3] = tested on: ExpR1; details: cited from earlier work; for ExpR1 antagonism: 5 µM compound against 5 µM OHHL, negative values indicate potential activators, ref 6 (SI; Palmer et al., 2011); for ExpR1 [%] (agonism, activation): compounds at 200 μM, cellulase activity in P. versatile AC5117, ref Palmer et al., 2011 (main ref 44, SI ref 6)
[4] = tested on: LuxR; details: cited from earlier work; for LuxR antagonism: 5 µM compound against 5 µM OHHL, negative values indicate potential activators, ref 6 (SI; Palmer et al., 2011); for LuxR [%] (agonism, activation): compounds at 200 μM, luminescence in V. fischeri ES114 (ΔluxI), ref Palmer et al., 2011 (main ref 44, SI ref 6)
[5] = target: T1, EsaR; assay: cell-based; details: for activation at 100 µM / inhibition at 100 µM: 3.5 h; for activation at 100 µM: read-out: EsaR-repressed (pesaR) [%] agonism; for inhibition at 100 µM: read-out: EsaR-repressed (pesaR) antagonism
Text: as §1, §2, §3

[6] = ref 6 (SI; Palmer et al., 2011)

SMILES | activation at 100 µM [1] | inhibition at 100 µM [1] | ExpR2 antagonism (percent inhibition) [2, 6] | ExpR2 [%] (agonism, percent activation) [2] | ExpR1 antagonism [3] | ExpR1 [%] (agonism, activation) [3] | LuxR antagonism [4] | LuxR [%] (agonism, activation) [4] | activation at 100 µM [5] | inhibition at 100 µM [5] | EC50 [1] | EC50 [5] | EsaR agonism, in words [1] | IC50 ([2]; previously reported phenotypic reporter data, ref 6 (SI; Palmer et al., 2011)) | fold less potent than OHHL in EsaR (EC50 ratio) ([1]; E. coli EsaR-activated reporter EC50 values)
O=C(Cc1cc(C(F)(F)F)cc(C(F)(F)F)c1)N[C@H]1CCOC1=O [E9] | 60% | -67% | 16% | 15% | 4% | 9% | 0% | 107% | 41% | -17% | – | – | – | – | –
O=C(Cc1ccccc1)N[C@H]1CCOC1=O [C1] | 17% | -13% | 11% | 21% | 4% | 6% | 14% | 3% | 7% | -61% | – | – | – | – | –
CCCCCCCC(=O)CC(=O)N[C@H]1CCOC1=O [ODHL, reference compound] | 65% | -69% | 33% | 48% | 42% | 6% | 47% | 2% | 37% | -94% | ≥ 65 µM | ≥ 101 µM | – | – | –
O=C(Cc1ccc(Cl)cc1)N[C@H]1CCOC1=O [C5, 4-Cl PHL] | -1% | -3% | 48% | 29% | 78% | 5% | 75% | 3% | 3% | 2% | – | – | nearly inactive | – | –
O=C(Cc1ccc2ccccc2c1)N[C@H]1CCOC1=O [E12] | 0% | -10% | 5% | 56% | 58% | 8% | 83% | 2% | 7% | 37% | – | – | – | – | –
O=C(Cc1ccccc1[N+](=O)[O-])N[C@H]1CCOC1=O [C15] | -10% | -6% | 3% | 19% | 27% | 9% | 23% | 4% | -1% | 0% | – | – | – | – | –
O=C(Cc1ccccc1Br)N[C@H]1CCOC1=O [C9] | -2% | -8% | 32% | 32% | 49% | 9% | 47% | 12% | 0.4% | -14% | – | – | – | – | –
O=C(Cc1ccc(Br)cc1)N[C@H]1CCOC1=O [K3] | 9% | -24% | 62% | 25% | 71% | 4% | 79% | 3% | 18% | -76% | – | – | – | 0.85 µM | –
Cc1cccc(CC(=O)N[C@H]2CCOC2=O)c1 [E1] | 25% | 1% | 62% | 13% | 74% | 6% | 78% | 5% | 12% | 2% | – | – | – | – | –
O=C(Cc1cccc(I)c1)N[C@H]1CCOC1=O [C11, 3-iodo PHL] | 65% | -57% | 63% | 61% | 83% | 32% | 78% | 28% | 44% | -56% | – | – | agonized EsaR | – | ~300 fold
O=C(N[C@H]1CCOC1=O)c1ccccc1 [B8] | 2% | -4% | 23% | 6% | 37% | 0% | 34% | 2% | 6% | -4% | – | – | – | – | –
O=C(Cc1cccc2ccccc12)N[C@H]1CCOC1=O [E13] | -11% | -2% | -6% | 95% | 69% | 7% | 84% | 3% | 0.5% | -11% | – | – | – | – | –
O=C(Cc1ccccc1Cl)N[C@H]1CCOC1=O [C7] | 10% | 1% | 41% | 28% | 57% | 9% | 53% | 6% | 5% | -26% | – | – | – | – | –
